Experimental data as given in patent publication US12065436B2, “Cardiac sarcomere inhibitors” (Cytokinetics, Inc., priority 2018, dated 2024).

Biological target: bovine cardiac myofibrils (full-length cardiac myosin ATPase in the native sarcomere) (Bos taurus (Bovine), UniProt Q9BE39)
Experiment: Skinned bovine cardiac myofibril ATPase assay (PK/LDH-coupled)
Type: biochemical
Details: Ca2+ activating to 75% of maximal rate; for CDMF75 IC15: concentration giving 15% inhibition; for IC50: read-out: CDMF75 IC50
Summary of the method: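 Inhibition of steady-state ATPase read at 340 nm through a PK/LDH-coupled NADH system (0.5 mM NADH, 1.5 mM PEP). Detergent-skinned bovine cardiac myofibrils, 1 mg/mL, were tested at pH 6.8 in PIPES/MgCl2 with 50 μM ATP and calcium adjusted to give pCa50 or pCa75 activation.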

bovine cardiac myofibrils (full-length cardiac myosin ATPase in the native sarcomere), sequence (Q9BE39 whole entry): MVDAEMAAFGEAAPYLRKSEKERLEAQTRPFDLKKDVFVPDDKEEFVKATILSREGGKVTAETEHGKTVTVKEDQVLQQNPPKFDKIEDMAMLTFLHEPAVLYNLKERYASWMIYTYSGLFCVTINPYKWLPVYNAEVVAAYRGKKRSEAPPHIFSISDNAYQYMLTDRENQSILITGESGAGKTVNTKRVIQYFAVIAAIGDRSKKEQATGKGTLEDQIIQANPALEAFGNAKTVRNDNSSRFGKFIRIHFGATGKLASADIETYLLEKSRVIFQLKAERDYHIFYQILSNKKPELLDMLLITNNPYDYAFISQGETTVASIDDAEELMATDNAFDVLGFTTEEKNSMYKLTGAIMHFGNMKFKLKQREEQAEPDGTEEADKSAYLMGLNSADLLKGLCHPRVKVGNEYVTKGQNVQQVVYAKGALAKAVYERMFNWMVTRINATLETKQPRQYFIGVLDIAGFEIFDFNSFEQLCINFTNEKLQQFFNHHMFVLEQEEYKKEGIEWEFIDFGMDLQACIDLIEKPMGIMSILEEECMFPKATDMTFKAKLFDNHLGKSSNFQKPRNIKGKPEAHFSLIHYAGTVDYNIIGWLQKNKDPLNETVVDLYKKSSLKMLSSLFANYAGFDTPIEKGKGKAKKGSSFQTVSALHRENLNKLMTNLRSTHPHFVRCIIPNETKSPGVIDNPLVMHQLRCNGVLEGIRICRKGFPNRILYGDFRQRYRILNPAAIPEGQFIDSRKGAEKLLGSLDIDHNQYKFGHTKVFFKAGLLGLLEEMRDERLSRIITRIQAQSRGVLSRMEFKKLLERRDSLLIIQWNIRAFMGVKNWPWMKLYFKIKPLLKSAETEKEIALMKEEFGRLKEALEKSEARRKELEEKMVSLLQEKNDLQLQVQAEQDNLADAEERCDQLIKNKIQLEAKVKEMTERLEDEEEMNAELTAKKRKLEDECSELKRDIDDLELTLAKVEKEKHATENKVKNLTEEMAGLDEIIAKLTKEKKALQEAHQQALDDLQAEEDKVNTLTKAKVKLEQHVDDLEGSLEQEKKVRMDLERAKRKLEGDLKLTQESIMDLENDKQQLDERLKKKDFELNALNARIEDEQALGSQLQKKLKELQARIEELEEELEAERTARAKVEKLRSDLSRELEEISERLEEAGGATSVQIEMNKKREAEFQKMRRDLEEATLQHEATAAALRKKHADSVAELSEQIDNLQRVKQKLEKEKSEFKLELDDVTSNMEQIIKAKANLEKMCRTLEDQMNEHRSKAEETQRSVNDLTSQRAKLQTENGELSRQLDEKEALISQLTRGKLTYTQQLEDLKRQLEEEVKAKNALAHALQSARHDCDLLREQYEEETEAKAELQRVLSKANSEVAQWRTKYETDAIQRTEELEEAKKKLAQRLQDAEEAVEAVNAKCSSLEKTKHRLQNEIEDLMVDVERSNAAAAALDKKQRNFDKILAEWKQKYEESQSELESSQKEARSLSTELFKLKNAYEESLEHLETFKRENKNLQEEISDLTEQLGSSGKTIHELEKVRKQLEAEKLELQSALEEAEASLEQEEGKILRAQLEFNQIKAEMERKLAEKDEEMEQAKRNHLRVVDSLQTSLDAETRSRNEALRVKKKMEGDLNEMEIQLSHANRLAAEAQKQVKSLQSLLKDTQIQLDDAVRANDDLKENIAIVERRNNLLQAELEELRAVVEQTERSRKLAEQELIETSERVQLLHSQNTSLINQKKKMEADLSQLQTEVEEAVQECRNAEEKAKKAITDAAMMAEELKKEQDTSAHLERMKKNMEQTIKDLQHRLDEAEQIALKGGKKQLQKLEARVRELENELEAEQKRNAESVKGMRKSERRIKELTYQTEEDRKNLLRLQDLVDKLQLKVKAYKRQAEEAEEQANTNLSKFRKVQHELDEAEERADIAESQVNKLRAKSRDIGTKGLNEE
bovine cardiac myofibrils (full-length cardiac myosin ATPase in the native sarcomere), sequence (P85100 whole entry partner): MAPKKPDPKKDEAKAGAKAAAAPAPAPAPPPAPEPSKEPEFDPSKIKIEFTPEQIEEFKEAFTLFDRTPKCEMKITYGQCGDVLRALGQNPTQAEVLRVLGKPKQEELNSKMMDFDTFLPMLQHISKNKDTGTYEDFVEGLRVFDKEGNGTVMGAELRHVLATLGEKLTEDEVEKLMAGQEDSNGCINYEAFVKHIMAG
bovine cardiac myofibrils (full-length cardiac myosin ATPase in the native sarcomere), sequence (Q3SZE5 whole entry partner): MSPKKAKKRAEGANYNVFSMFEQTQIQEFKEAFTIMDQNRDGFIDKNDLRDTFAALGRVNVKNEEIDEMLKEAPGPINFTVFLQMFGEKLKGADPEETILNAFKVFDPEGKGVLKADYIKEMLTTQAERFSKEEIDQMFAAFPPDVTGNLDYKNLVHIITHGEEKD

CDMF75 IC15 | IC50 | SMILES
500 nM | 2300 nM | COCc1nc(-c2ccc3c(c2)CC[C@H]3NC(=O)c2cccc(CO)c2)no1 [Compound 669, (R)-3-(hydroxymethyl)-N-(5-(5-(methoxymethyl)-1,2,4-oxadiazol-3-yl)-2,3-dihydro-1H-inden-1-yl)benzamide]
5800 nM | 26600 nM | COCc1nc(-c2ccc3c(c2)CC[C@H]3NC(=O)c2cccc(CO)c2F)no1 [Compound 670, (R)-2-fluoro-3-(hydroxymethyl)-N-(5-(5-(methoxymethyl)-1,2,4-oxadiazol-3-yl)-2,3-dihydro-1H-inden-1-yl)benzamide]
6500 nM | 30200 nM | COCc1nc(-c2ccc3c(c2)CC[C@H]3NC(=O)c2cc(CO)ccc2F)no1 [Compound 671, (R)-2-fluoro-5-(hydroxymethyl)-N-(5-(5-(methoxymethyl)-1,2,4-oxadiazol-3-yl)-2,3-dihydro-1H-inden-1-yl)benzamide]
3200 nM | 13700 nM | COCc1nc(-c2ccc3c(c2)CC[C@H]3NC(=O)c2cc(CO)ccn2)no1 [Compound 672, (R)-4-(hydroxymethyl)-N-(5-(5-(methoxymethyl)-1,2,4-oxadiazol-3-yl)-2,3-dihydro-1H-inden-1-yl)picolinamide]
2800 nM | 13000 nM | COCc1nc(-c2ccc3c(c2)CC[C@H]3NC(=O)c2cc(CO)ccn2)no1 [Compound 673, (R)-4-(hydroxymethyl)-N-(5-(5-(methoxymethyl)-1,2,4-oxadiazol-3-yl)-2,3-dihydro-1H-inden-1-yl)picolinamide]
1900 nM | 7400 nM | O=C(N[C@@H]1CCc2cc(-c3noc(C(F)F)n3)ccc21)c1cc(O)no1 [Compound 674, (R)-N-(5-(5-(difluoromethyl)-1,2,4-oxadiazol-3-yl)-2,3-dihydro-1H-inden-1-yl)-3-hydroxyisoxazole-5-carboxamide]
800 nM | 2700 nM | Cc1c(C(=O)N[C@@H]2CCc3cc(-c4noc(C(F)F)n4)ccc32)cnn1CCO [Compound 675, (R)-N-(5-(5-(difluoromethyl)-1,2,4-oxadiazol-3-yl)-2,3-dihydro-1H-inden-1-yl)-1-(2-hydroxyethyl)-5-methyl-1H-pyrazole-4-carboxamide]
500 nM | 1800 nM | Cc1ncc(C(=O)N[C@@H]2CCc3cc(-c4noc(C(F)F)n4)ccc32)s1 [Compound 676, (R)-N-(5-(5-(difluoromethyl)-1,2,4-oxadiazol-3-yl)-2,3-dihydro-1H-inden-1-yl)-2-methylthiazole-5-carboxamide]
300 nM | 900 nM | Cc1nocc1C(=O)N[C@@H]1CCc2cc(-c3noc(C(F)F)n3)ccc21 [Compound 677, (R)-N-(5-(5-(difluoromethyl)-1,2,4-oxadiazol-3-yl)-2,3-dihydro-1H-inden-1-yl)-3-methylisoxazole-4-carboxamide]
700 nM | 2300 nM | Cc1ncc(C(=O)N[C@@H]2CCc3cc(-c4noc(C(F)F)n4)ccc32)n1C [Compound 678, (R)-N-(5-(5-(difluoromethyl)-1,2,4-oxadiazol-3-yl)-2,3-dihydro-1H-inden-1-yl)-1,2-dimethyl-1H-imidazole-5-carboxamide]
800 nM | 3000 nM | Cc1cc(C(=O)N[C@@H]2CCc3cc(-c4noc(C(F)F)n4)ccc32)on1 [Compound 679, (R)-N-(5-(5-(difluoromethyl)-1,2,4-oxadiazol-3-yl)-2,3-dihydro-1H-inden-1-yl)-3-methylisoxazole-5-carboxamide]
500 nM | 1700 nM | COc1cc(C(=O)N[C@@H]2CCc3cc(-c4noc(C(F)F)n4)ccc32)on1 [Compound 680, (R)-N-(5-(5-(difluoromethyl)-1,2,4-oxadiazol-3-yl)-2,3-dihydro-1H-inden-1-yl)-3-methoxyisoxazole-5-carboxamide]
1300 nM | 5900 nM | Cc1cnc(C(=O)N[C@@H]2CCc3cc(-c4noc(C(F)F)n4)ccc32)o1 [Compound 681, (R)-N-(5-(5-(difluoromethyl)-1,2,4-oxadiazol-3-yl)-2,3-dihydro-1H-inden-1-yl)-5-methyloxazole-2-carboxamide]
400 nM | 1600 nM | O=C(N[C@@H]1CCc2cc(-c3noc(C(F)F)n3)ccc21)c1ocnc1C(F)(F)F [Compound 682, (R)-N-(5-(5-(difluoromethyl)-1,2,4-oxadiazol-3-yl)-2,3-dihydro-1H-inden-1-yl)-4-(trifluoromethyl)oxazole-5-carboxamide]
1100 nM | 4600 nM | Cc1cc(C(=O)N[C@@H]2CCc3cc(-c4noc(C(F)F)n4)ccc32)ncn1 [Compound 683, (R)-N-(5-(5-(difluoromethyl)-1,2,4-oxadiazol-3-yl)-2,3-dihydro-1H-inden-1-yl)-6-methylpyrimidine-4-carboxamide]
1100 nM | 5000 nM | COc1cc(C(=O)N[C@@H]2CCc3cc(-c4noc(C(F)F)n4)ccc32)ccn1 [Compound 684, (R)-N-(5-(5-(difluoromethyl)-1,2,4-oxadiazol-3-yl)-2,3-dihydro-1H-inden-1-yl)-2-methoxyisonicotinamide]
700 nM | 2600 nM | O=C(N[C@@H]1CCc2cc(-c3noc(C(F)F)n3)ccc21)c1ccnc(C(F)F)c1 [Compound 685, (R)-2-(difluoromethyl)-N-(5-(5-(difluoromethyl)-1,2,4-oxadiazol-3-yl)-2,3-dihydro-1H-inden-1-yl)isonicotinamide]
900 nM | 3100 nM | Cc1nn(CCO)cc1C(=O)N[C@@H]1CCc2cc(-c3noc(C(F)F)n3)ccc21 [Compound 686, (R)-N-(5-(5-(difluoromethyl)-1,2,4-oxadiazol-3-yl)-2,3-dihydro-1H-inden-1-yl)-1-(2-hydroxyethyl)-3-methyl-1H-pyrazole-4-carboxamide]
1000 nM | 4400 nM | Cc1cc(C(=O)N[C@@H]2CCc3cc(-c4noc(C(F)F)n4)ccc32)cnn1 [Compound 687, (R)-N-(5-(5-(difluoromethyl)-1,2,4-oxadiazol-3-yl)-2,3-dihydro-1H-inden-1-yl)-6-methylpyridazine-4-carboxamide]
1700 nM | 6800 nM | COCc1nc(-c2ccc3c(c2)CC[C@H]3NC(=O)c2cc(C)no2)no1 [Compound 688, (R)-N-(5-(5-(methoxymethyl)-1,2,4-oxadiazol-3-yl)-2,3-dihydro-1H-inden-1-yl)-3-methylisoxazole-5-carboxamide]
600 nM | 2100 nM | COCc1nc(-c2ccc3c(c2)CC[C@H]3NC(=O)c2conc2C)no1 [Compound 689, (R)-N-(5-(5-(methoxymethyl)-1,2,4-oxadiazol-3-yl)-2,3-dihydro-1H-inden-1-yl)-3-methylisoxazole-4-carboxamide]
4400 nM | 21300 nM | COCc1nc(-c2ccc3c(c2)CC[C@H]3NC(=O)c2cc(C)on2)no1 [Compound 690, (R)-N-(5-(5-(methoxymethyl)-1,2,4-oxadiazol-3-yl)-2,3-dihydro-1H-inden-1-yl)-5-methylisoxazole-3-carboxamide]
1000 nM | 4600 nM | COCc1nc(-c2ccc3c(c2)CC[C@H]3NC(=O)c2nonc2C)no1 [Compound 692, (R)-N-(5-(5-(methoxymethyl)-1,2,4-oxadiazol-3-yl)-2,3-dihydro-1H-inden-1-yl)-4-methyl-1,2,5-oxadiazole-3-carboxamide]
900 nM | 3700 nM | COCc1nc(-c2ccc3c(c2)CC[C@H]3NC(=O)c2cc(OC)no2)no1 [Compound 693, (R)-3-methoxy-N-(5-(5-(methoxymethyl)-1,2,4-oxadiazol-3-yl)-2,3-dihydro-1H-inden-1-yl)isoxazole-5-carboxamide]
1800 nM | 7000 nM | COCc1nc(-c2ccc3c(c2)CC[C@H]3NC(=O)c2cnn(CCO)c2C)no1 [Compound 694, (R)-1-(2-hydroxyethyl)-N-(5-(5-(methoxymethyl)-1,2,4-oxadiazol-3-yl)-2,3-dihydro-1H-inden-1-yl)-5-methyl-1H-pyrazole-4-carboxamide]
2100 nM | 7800 nM | COCc1nc(-c2ccc3c(c2)CC[C@H]3NC(=O)c2cn(CCO)nc2C)no1 [Compound 695, (R)-1-(2-hydroxyethyl)-N-(5-(5-(methoxymethyl)-1,2,4-oxadiazol-3-yl)-2,3-dihydro-1H-inden-1-yl)-3-methyl-1H-pyrazole-4-carboxamide]
1100 nM | 4200 nM | COCc1nc(-c2ccc3c(c2)CC[C@H]3NC(=O)c2cnc(C)s2)no1 [Compound 696, (R)-N-(5-(5-(methoxymethyl)-1,2,4-oxadiazol-3-yl)-2,3-dihydro-1H-inden-1-yl)-2-methylthiazole-5-carboxamide]
900 nM | 3500 nM | COCc1nc(-c2ccc3c(c2)CC[C@H]3NC(=O)c2nnc(C)o2)no1 [Compound 698, (R)-N-(5-(5-(methoxymethyl)-1,2,4-oxadiazol-3-yl)-2,3-dihydro-1H-inden-1-yl)-5-methyl-1,3,4-oxadiazole-2-carboxamide]
1700 nM | 7500 nM | CCc1nc(-c2cc3c(cc2F)[C@H](NC(=O)c2cnn(C)c2)CC3)no1 [Compound 699, (R)-N-(5-(5-ethyl-1,2,4-oxadiazol-3-yl)-6-fluoro-2,3-dihydro-1H-inden-1-yl)-1-methyl-1H-pyrazole-4-carboxamide]
700 nM | 2600 nM | CCc1nc(-c2ccc3c(c2)CC[C@H]3NC(=O)c2cccc(C(O)CO)c2)no1 (stereo partly drawn) [Compound 700, 3-(1,2-dihydroxyethyl)-N-((R)-5-(5-ethyl-1,2,4-oxadiazol-3-yl)-2,3-dihydro-1H-inden-1-yl)benzamide]
